Among the data in patent publication US7910602B2 (Sanofi-Aventis, priority 2005, dated 2011) are IC50 values, retold here.

For this assay, the target named is T1, GRK2 (βARK-1) (Homo sapiens, UniProt P25098).
T1 sequence (P25098 1-689): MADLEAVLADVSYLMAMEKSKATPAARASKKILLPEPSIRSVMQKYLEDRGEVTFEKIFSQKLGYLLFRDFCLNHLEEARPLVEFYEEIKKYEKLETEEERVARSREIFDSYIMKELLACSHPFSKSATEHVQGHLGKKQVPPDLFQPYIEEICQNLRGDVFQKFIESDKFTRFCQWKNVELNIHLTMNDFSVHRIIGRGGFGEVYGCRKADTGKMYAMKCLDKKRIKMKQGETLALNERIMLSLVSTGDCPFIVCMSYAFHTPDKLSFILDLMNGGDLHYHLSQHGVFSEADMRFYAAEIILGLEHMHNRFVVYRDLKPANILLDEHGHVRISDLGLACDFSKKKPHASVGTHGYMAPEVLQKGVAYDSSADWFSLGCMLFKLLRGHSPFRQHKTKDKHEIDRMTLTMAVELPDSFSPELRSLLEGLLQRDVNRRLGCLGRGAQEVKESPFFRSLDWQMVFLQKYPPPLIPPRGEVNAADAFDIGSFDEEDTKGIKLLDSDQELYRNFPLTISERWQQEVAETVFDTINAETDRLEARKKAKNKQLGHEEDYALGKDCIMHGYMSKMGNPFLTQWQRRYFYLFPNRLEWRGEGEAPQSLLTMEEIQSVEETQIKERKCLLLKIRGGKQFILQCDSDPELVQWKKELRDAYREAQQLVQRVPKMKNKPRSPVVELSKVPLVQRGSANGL
Description: GRK2 (βARK-1) kinase assay: 33P phosphorylation of biotinylated bovine tubulin dimers, scintillation counting. The settings on record: 100 nM GRK2 pre-incubated with inhibitor 30 min at room temperature; 250 nM tubulin, 3 μM ATP, [γ-33P]-ATP, 30 min reaction. Type of assay: biochemical. How it is done: The assay determines phosphorylation of biotinylated bovine tubulin dimers (250 nM; TEBU-BIO, # T333) coated to 384 well StreptaWell plates by 100 nM GRK2 which has been pre-incubated with inhibitor cpd. for 30 minutes at room temperature in assay buffer (20 mM Tris-HCl pH 7.4, 2 mM EDTA) containing 2.25% DMSO. The phosphorylation reaction was started by adding tubulin, MgCl2 (10 mM), ATP (3 μM), [γ-^33P]-ATP (0.4 μCi/40 μl) to the preincubated GRK2/compound complex. Then the assay mix was incubated for 30 min at room temperature before the kinase reaction was stopped adding 0.8% BSA, 0.8% Triton X 100, 80 mM EDTA and 400 μM ATP) followed by an 2-24 h incubation at +4° C. Due to the high energy of the […] free ^33P-ATP is removed by a washing step (3× with 100 μl 1×PBS pH 8.0) using a Tecan Power washer 384 to reduce background activity. Bound ^33P is determined by scintillation counting (60 μl scintillator, Ultimagold MV, 30 sec mix) using a Microbeta-counter (delay time 30 min).

In general, IC50 refers to the midpoint of a concentration-inhibition curve. A low value points to inhibition by little substance. `Cn1cc(-c2cc(C(N)=O)nc3[nH]ncc23)c2cc(OCC(N)=O)ccc21` [Example 8, 4-(5-Carbamoylmethoxy-1-methyl-1H-indol-3-yl)-1H-pyrazolo[3,4-b]pyridine-6-carboxylic acid amide] displayed a concentration for half-maximal inhibition (IC50) of 20 nM.

For `Cn1cc(-c2cc(C(N)=O)nc3[nH]ncc23)c2cc(OCC3CCCNC3)ccc21` (stereo not shown) [Example 3, 4-(1-methyl-5-(piperidin-3-ylmethoxy)-1H-indol-3-yl)-1H-pyrazolo(3,4-b)pyridine-6-carboxylic acid amide], the IC50 amounted to 700 nM.

`Cn1cc(-c2cc(C(N)=O)nc3[nH]ncc23)c2ccccc21` [Example 4] registered an IC50 of 270 nM.

Take `NC(=O)c1cc(-c2cccc(O)c2)c2cn[nH]c2n1` [Example 16]: half-maximal inhibition (IC50) required 2100 nM.
